Data reported in US10034879B2, “Substituted benzaldehyde compounds and methods for their use in increasing tissue oxygenation” (Global Blood Therapeutics, Inc., priority 2011, dated 2018).

What was measured:
[1] = target: T1, purified Hemoglobin S (HbS) (Homo sapiens, UniProt P68871+P69905, E7V); test: Oxygen equilibrium curves (OEC) in purified HbS, HEMOX analyzer, change in p50; type: biochemical; settings: 25 μM purified HbS
T1 construct: HbS was purified by a modified procedure; from tissue; host or cells: blood of homozygous sickle cell patients
Experimental: Oxygen equilibrium curves (OEC) in purified Hemoglobin S (HbS) were measured by the change in p50, the partial pressure of oxygen at which the heme binding sites in the HbS sample are 50% saturated with oxygen. HbS was purified by a modified procedure (Antonini and Brunori, 1971; Heomoglobin and Myoglobin in their Reactions with Ligands; North Holland Publishing Company; Amsterdam, London) from blood obtained from homozygous sickle cell patients though the Hemoglobinopathy Center at Children's Hospital Oakland Research Institute (CHORI) with Institutional Review Board approval. Oxygen equilibrium curves were carried out with a HEMOX analyzer, (TCS Scientific, New Hope, Pa.). Five hundred μL of 250 μM purified HbS were diluted into 4.5 mL of HEMOX buffer (30 mM TES, 130 mM NaCl, 5 mM KCl, pH=7.4) resulting in a final hemoglobin concentration of 25 μM. The compounds were added at the final desired concentrations. The mixture was incubated for 45 min at 37° C. and then transferred to the Hemox sample chamber. The samples were saturated with oxygen by flushing with compressed air for 10 minutes. The samples were then flushed with pure nitrogen and the absorbance of deoxy-Hb was recorded as a function of the solution pO2. The oxygen equilibrium data was then fit to the Hill Model to obtain values for p50. The deoxygenation curves for both HbS alone (control) and HbS in the presence of compound were collected with the TCS software. The p50 for purified Hbs was typically 13.8±1.6. Delta p50 values were obtained from the p50 value for control minus the p50 value for HbS treated with compound divided by the p50 value for the control.
The compounds of Table 1 that were where tested in the assay above were all found to have positive delta p50 values. Delta p50% is calculated from [[p50(HbS)−p50(HbS treated with compound)]/p50(HbS)]×100. Table 2 below lists the delta p50% values where + indicates a delta p50% of between 0 and 29 and ++ indicates a delta p50% of 30 or greater. Unless noted otherwise, the compounds in Table 2 were tested at 30 μM.

HbS/A = target: T2, HbS/A (Homo sapiens, UniProt P68871+P69905, E7V); test: Relaxed-to-tense transition assay (R/T assay); type: biochemical; settings: compound at 9 μM; 3 μM HbS/A
T2 construct: A mixture of HbS/A was purified from blood; from tissue; host or cells: blood of homozygous sickle cell patients
Experimental: A relaxed-to-tense transition assay (“R/T assay”) was used to determine the ability of substituted benzaldehyde compounds to maintain the high-oxygen affinity relaxed (R) state of hemoglobin under deoxygenated conditions. This ability can be expressed as a “delta R” value (i.e., the change in the time-period of the R state after hemoglobin is treated with a compound, as compared to the period without treatment with the compound). Delta R is the % R to remaining after the compounds treatment compared with no treatment (e.g. if R % without treatment is 8% while with treatment with a target compound is 48% R at 30 μM, then % R is 40% for that compound.
A mixture of HbS/A was purified from blood obtained from homozygous sickle cell patients though the Hemoglobinopathy Center at Children's Hospital Oakland Research Institute (CHORI) with Institutional Review Board approval. HbS/A (at a final concentration of 3 μM) was incubated for 1 hr at 37° C. in presence or absence of compounds in […] potassium phosphate buffer, pH=7.4 and 30 μM 2, 3 diphosphoglycerate (DPG) in 96 well plates in a final volume of 160 μl. Compounds were added at different concentrations (3 μM to 100 μM final concentrations). Plates were covered with a Mylar film. After incubation was completed the Mylar cover was removed and the plates were placed in a Spectrostar Nano plate reader previously heated at 37° C. Five minutes later, N2 (flow rate=20 L/min) was flowed through the spectrophotometer. Spectroscopic measurements (300 nm to 700 nm) were taken every 5 min for 2 hours. Data analysis was performed by using linear regression from the data retrieved for all wavelengths.
Table 4 below lists the delta R values where + indicates a delta R of between 0 and 30, ++ indicates a delta R of between 30 and 50, and +++ indicates a delta R of 50 or greater. Unless noted otherwise, the compounds in Table 2 were tested at 9 μM.

SMILES	delta p50 ([1]; compound at 30 μM)	delta p50 ([1]; compound at 100 μM)	delta R (%) (HbS/A)
COc1ccc(OCc2cccn3ccnc23)c(C=O)c1 [Compound 1, 2-(imidazo[1,2-a]pyridin-8-ylmethoxy)-5-methoxybenzaldehyde]	++ (++ indicates a delta p50% of 30 or greater)		
N#Cc1ccc(C=O)c(OCc2cccn3ccnc23)c1 [Compound 2, 4-formyl-3-(imidazo[1,2-a]pyridin-8-ylmethoxy)benzonitrile]	+ (+ indicates a delta p50% of between 0 and 29)		
COc1ccc(C=O)c(OCc2cccn3ccnc23)c1 [Compound 3, 2-(imidazo[1,2-a]pyridin-8-ylmethoxy)-4-methoxybenzaldehyde]		+ (100 μM) (+ indicates a delta p50% of between 0 and 29)	
COc1ccc(OCc2ccc3nccn3c2)c(C=O)c1 [Compound 4, 2-(imidazo[1,2-a]pyridin-6-ylmethoxy)-5-methoxybenzaldehyde]	+ (+ indicates a delta p50% of between 0 and 29)		
COc1ccc(OCc2cn3ccccc3n2)c(C=O)c1 [Compound 5, 2-(imidazo[1,2-a]pyridin-2-ylmethoxy)-5-methoxybenzaldehyde]	++ (++ indicates a delta p50% of 30 or greater)		++ (++ indicates a delta R of between 30 and 50)
COc1ccc(C=O)c(OCc2cccn3cncc23)c1 [Compound 6, 2-(imidazo[1,5-a]pyridin-8-ylmethoxy)-4-methoxybenzaldehyde]		+ (100 μM) (+ indicates a delta p50% of between 0 and 29)	
COc1ccc(OCc2cccn3cncc23)c(C=O)c1 [Compound 7, 2-(imidazo[1,5-a]pyridin-8-ylmethoxy)-5-methoxybenzaldehyde]	++ (++ indicates a delta p50% of 30 or greater)		
COc1ccc(OCc2ccn3ccnc3c2)c(C=O)c1 [Compound 8, 2-(imidazo[1,2-a]pyridin-7-ylmethoxy)-5-methoxybenzaldehyde]	+ (+ indicates a delta p50% of between 0 and 29)		
COc1ccc(OCc2cnc3ccccn23)c(C=O)c1 [Compound 9, 2-(imidazo[1,2-a]pyridin-3-ylmethoxy)-5-methoxybenzaldehyde]	+ (+ indicates a delta p50% of between 0 and 29)		
COc1ccc(OCc2cccc3ncccc23)c(C=O)c1 [Compound 10, 5-methoxy-2-(quinolin-5-ylmethoxy)benzaldehyde]	++ (++ indicates a delta p50% of 30 or greater)		++ (++ indicates a delta R of between 30 and 50)
O=Cc1cc(Br)ccc1OCc1cccn2ccnc12 [Compound 11, 5-bromo-2-(imidazo[1,2-a]pyridin-8-ylmethoxy)benzaldehyde]	+ (+ indicates a delta p50% of between 0 and 29)		
O=Cc1ccc(Cl)cc1OCc1cccn2ccnc12 [Compound 12, 4-chloro-2-(imidazo[1,2-a]pyridin-8-ylmethoxy)benzaldehyde]		+ (100 μM) (+ indicates a delta p50% of between 0 and 29)	
O=Cc1ccccc1OCc1cccn2ccnc12 [Compound 13, 2-(imidazo[1,2-a]pyridin-8-ylmethoxy)benzaldehyde]	+ (+ indicates a delta p50% of between 0 and 29)		
O=Cc1ccc(F)cc1OCc1cccn2ccnc12 [Compound 14, 4-fluoro-2-(imidazo[1,2-a]pyridin-8-ylmethoxy)benzaldehyde]	+ (+ indicates a delta p50% of between 0 and 29)		
COc1cccc(C=O)c1OCc1cccn2ccnc12 [Compound 15, 2-(imidazo[1,2-a]pyridin-8-ylmethoxy)-3-methoxybenzaldehyde]		+ (100 μM) (+ indicates a delta p50% of between 0 and 29)	
Cc1ccc(OCc2cccn3ccnc23)c(C=O)c1 [Compound 16, 2-(imidazo[1,2-a]pyridin-8-ylmethoxy)-5-methylbenzaldehyde]	+ (+ indicates a delta p50% of between 0 and 29)		
COc1ccc(OCc2ccnc3[nH]ccc23)c(C=O)c1 [Compound 21, 2-((1H-pyrrolo[2,3-b]pyridin-4-yl)methoxy)-5-methoxybenzaldehyde]		+ (100 μM) (+ indicates a delta p50% of between 0 and 29)	
COc1ccc(OCc2cccc3c2cnn3C)c(C=O)c1 [Compound 23, 5-methoxy-2-((1-methyl-1H-indazol-4-yl)methoxy)benzaldehyde]	++ (++ indicates a delta p50% of 30 or greater)		
COc1ccc(OCc2cn3cccc(C)c3n2)c(C=O)c1 [Compound 24, 5-methoxy-2-((8-methylimidazo[1,2-a]pyridin-2-yl)methoxy)benzaldehyde]	++ (++ indicates a delta p50% of 30 or greater)		+ (+ indicates a delta R of between 0 and 30)
COc1ccc(OCc2cccc3[nH]ncc23)c(C=O)c1 [Compound 25, 2-((1H-indazol-4-yl)methoxy)-5-methoxybenzaldehyde]	++ (++ indicates a delta p50% of 30 or greater)		++ (++ indicates a delta R of between 30 and 50)
COc1ccc(OCc2ccc3cnccn23)c(C=O)c1 [Compound 33, 5-methoxy-2-(pyrrolo[1,2-a]pyrazin-6-ylmethoxy)benzaldehyde]		+ (100 μM) (+ indicates a delta p50% of between 0 and 29)	
COc1ccc(OCc2ccc3cncn3c2)c(C=O)c1 [Compound 34, 2-(imidazo[1,5-a]pyridin-6-ylmethoxy)-5-methoxybenzaldehyde]	+ (+ indicates a delta p50% of between 0 and 29)		
N#Cc1ccc(OCc2cccn3ccnc23)c(C=O)c1 [Compound 35, 3-formyl-4-(imidazo[1,2-a]pyridin-8-ylmethoxy)benzonitrile]	+ (+ indicates a delta p50% of between 0 and 29)		
COc1ccc(OCc2cccc3nccn23)c(C=O)c1 [Compound 37, 2-(imidazo[1,2-a]pyridin-5-ylmethoxy)-5-methoxybenzaldehyde]	+ (+ indicates a delta p50% of between 0 and 29)		
COc1ccc(NC(=O)c2cccn3ccnc23)c(C=O)c1 [Compound 38, N-(2-formyl-4-methoxyphenyl)imidazo[1,2-a]pyridine-8-carboxamide]		++ (100 μM) (++ indicates a delta p50% of 30 or greater)	
O=Cc1ccccc1NC(=O)c1cccn2ccnc12 [Compound 39, N-(2-formylphenyl)imidazo[1,2-a]pyridine-8-carboxamide]		+ (100 μM) (+ indicates a delta p50% of between 0 and 29)	
O=Cc1ccccc1C(=O)Nc1cccn2ccnc12 [Compound 40, 2-formyl-N-(imidazo[1,2-a]pyridin-8-yl)benzamide]	+ (+ indicates a delta p50% of between 0 and 29)		
COc1ccc(OCc2cccnc2)c(C=O)c1 [Compound 41, 5-methoxy-2-(pyridin-3-ylmethoxy)benzaldehyde]			+ (+ indicates a delta R of between 0 and 30)
